{"source": "patent US20240100081A1", "about": "“COMPOSITIONS AND METHODS FOR TREATING AGE-RELATED MACULAR DEGENERATION AND GEOGRAPHIC ATROPHY” (University of Virginia Patent Foundation, priority 2017, published 2024)", "key": {"IL-18": {"test_system": "IL-18", "test": "IL-18 secretion ELISA, mouse RPE cells", "format": "cell-based", "conditions": "Casp11−/− and Mb21d1−/− mouse RPE cells; LPS-primed, MSU 250 μg/ml", "protocol": "Secreted human and mouse interferon-β and IL-18 in the media were detected using the ELISA kits (mouse IFN-β, R&D Systems Cat #42400-1; mouse IL-18, R&D Systems Cat #7625; human IFN-β, R&D Systems Cat #41410; human IL-18, R&D systems Cat #DY318-05) according to the manufacturer's instructions. Primary mouse cells cultured as above. WT, Gsdmd^−/−, Casp11^−/−, and Mb21d1^−/− mouse RPE cells were seeded at a density of 250,000 cells/well in a 12-well plate. When confluency reached 60-70%, cells were transfected with 20 pmol of in vitro transcribed Alu RNA or mock using Lipofectamine 2000 reagent (Life Technologies, Carlsbad, CA) following the manufacturer protocol. Media was collected to detect secreted cytokine content at 8 to 24 h post-transfection. For examining the induction of IL-18 secretion by monosodium urate (MSU) crystals (Invivogen Cat #tlrl-msu), mouse RPE cells were primed with LPS (500 ng/ml) for 6 h and exposed to MSU (250 μg/ml) for 16 h, and media were collected to detect secreted cytokine."}, "RPE [1]": {"test_system": "RPE", "conditions": "earlier demonstration (refs 2, 21); cited from earlier work"}, "IFNB mRNA": {"test_system": "IFNB mRNA", "test": "IFNB mRNA real-time PCR, human RPE cells", "format": "cell-based", "conditions": "lentiviral shRNA", "protocol": "Real-time PCR Total RNA purified from cell using Trizol reagent (Invitrogen) following manufacturer's recommendation was DNase treated and reverse transcribed using […]® Reverse Transcription kit (QIAGEN). The RT products (cDNA) were amplified by real-time quantitative PCR (Applied Biosystems 7900 HT Fast Real-Time PCR system) with Power SYBR green Master Mix. Relative gene expression was determined by 2^−ΔΔCt t method using 18S rRNA or GAPDH as internal control. Primers were used as described in the provisional patent application from which this application depends and as in Kerur et al., 2018, Nature, the publication resulting from the data in the provisional application. The primers were for human IFNB1, CASP4, DICER, cGAS, 18s rRNA, mitochondrial DNA, GAPDH, and GSDMD, MIP1α, IL6, IL8, and mouse Ifnb1, Gapdh, 18s rRNA, and mitochondrial DNA.\nLentivirus articles were either produced by the University of Kentucky Viral Production Core facilities or in house. Lentivirus vector plasmids expressing scrambled sequences or shRNA sequences targeting human caspase-4 and cGAS were purchased (MISSION®shRNA, Sigma-Aldrich) to produce lentiviral particles. Human RPE cells at passage 3 were incubated with lentiviral particles at multiplicity of infection (MOI) of 5 overnight in regular growth media containing polybrene (4 μg/ml). […] Knockdown of the target proteins was determined by immunoblotting."}, "STAT2": {"test_system": "STAT2", "test": "STAT2 phosphorylation immunoblot, human RPE cells", "format": "cell-based", "conditions": "lentiviral shRNA", "protocol": "(§1) Cell and tissue lysates prepared in RIPA buffer where homogenized by sonication. Protein concentration was determined using Pierce BCA Protein Assay Kit (Thermo Fisher Scientific Inc.). Equal quantity of protein (10-50 μg) prepared in Laemmli buffer were resolved by SDS-PAGE on NOVEX® Tris-Glycine Gels (Invitrogen), and transferred onto Immobilon-FL PVDF membranes (Millipore). The transferred membranes were blocked in ODYSSEY® Blocking Buffer (PBS) or 5% nonfat dry skim milk for 1 hour at RT and then incubated with primary antibody at 4° C. overnight. The immunoreactive bands were visualized with help of species specific secondary antibodies conjugated with IRDYE® or HRP. The blot image were either captured on ODYSSEY® imaging systems or on an autoradiography film. […]"}, "caspase-1": {"test_system": "caspase-1", "test": "Caspase-1 activation (p20) immunoblot in human RPE cells", "format": "cell-based", "conditions": "lentiviral shRNA", "protocol": "as §1\nLentivirus articles were either produced by the University of Kentucky Viral Production Core facilities or in house. […] Knockdown of the target proteins was determined by immunoblotting."}, "caspase-4": {"test_system": "caspase-4", "test": "Caspase-4 activation (p30) immunoblot in human RPE cells", "format": "cell-based", "conditions": "lentiviral shRNA", "protocol": "as §1"}, "cGAS": {"molecular_target": "T1, cGAS (Mus musculus, UniProt Q8C6L5)", "T1 construct": "expressed in transfected cells", "T1 sequence (Q8C6L5 whole entry)": "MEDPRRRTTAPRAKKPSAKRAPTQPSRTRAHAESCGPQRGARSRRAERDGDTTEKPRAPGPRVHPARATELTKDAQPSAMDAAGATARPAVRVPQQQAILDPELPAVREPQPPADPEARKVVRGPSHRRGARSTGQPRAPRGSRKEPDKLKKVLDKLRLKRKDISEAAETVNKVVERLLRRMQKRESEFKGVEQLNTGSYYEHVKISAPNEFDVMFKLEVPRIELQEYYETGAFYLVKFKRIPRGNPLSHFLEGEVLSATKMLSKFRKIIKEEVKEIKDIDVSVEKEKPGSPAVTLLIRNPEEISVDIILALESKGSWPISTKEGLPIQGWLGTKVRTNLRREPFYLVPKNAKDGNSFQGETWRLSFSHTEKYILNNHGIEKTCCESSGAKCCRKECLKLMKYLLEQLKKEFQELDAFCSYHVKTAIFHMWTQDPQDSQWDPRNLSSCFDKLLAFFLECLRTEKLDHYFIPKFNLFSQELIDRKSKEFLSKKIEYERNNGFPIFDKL", "test": "cGAS-mtDNA interaction immunoprecipitation assay (HA-cGAS MEFs)", "format": "cell-based", "conditions": "HA-cGAS reconstituted Mb21d1−/− MEFs", "description": "Immortalized cGAS^−/− mouse embryonic fibroblasts (MEF) reconstituted with HA-tagged mouse cGAS (HA-cGAS) were described earlier^28. Interaction between mtDNA and cGAS was monitored using Express Chromatin Immunoprecipitation Kit (Active Motif, CHIP-IT® Express, cat #53008). Briefly mock, Alu RNA, poly I: C or plasmid DNA (pUC19) transfected HA-cGAS reconstituted cGAS^−/− MEFs were fixed with 1% formaldehyde per manufacturer's instructions. The cells were then lysed by sonication in the shearing buffer, centrifuged for 10 min at 18,000 g in a 4° C. microfuge. The supernatant containing the cell lysate was collected and cGAS was immunoprecipitated from each sample using anti-HA tag antibody (Abcam, cat #ab9110). DNA in the IP was eluted, reverse crosslinked and purified using Chromatin IP DNA Purification Kit (Active Motif, cat #58002). Purified DNA was analyzed by qPCR using mouse mtDNA specific primer pairs."}, "RPE [2]": {"test_system": "RPE", "test": "RPE flat mount annexin V/PI staining in mice", "conditions": "Alu RNA-treated Gsdmd−/− mice"}, "RPE [3]": {"test_system": "RPE", "test": "Alu-induced RPE degeneration in mice (subretinal injection; fundus photography, ZO-1 flat mounts)", "format": "in vivo, mouse", "conditions": "Gsdmd−/− mice", "protocol": "Alu-mediated RPE degeneration was induced by exposing mice to Alu RNA as previously described^14-18. Seven days later, RPE health was assessed by fundus photography and immunofluorescence staining of zonula occludens-1 (ZO-1) on RPE flat mounts (whole mount of posterior eye cup containing RPE and choroid layers). Mouse RPE and choroid flat mounts were fixed with 4% paraformaldehyde or 100% methanol, stained with rabbit polyclonal antibodies against mouse ZO-1 (1:100, Invitrogen), and visualized with Alexa-594 (Invitrogen). All images were obtained by microscopy (model SP-5, Leica; or Axio Observer Z1, Zeiss). Imaging was performed by an operator masked to the group assignments.\nBinary Assignment: Healthy RPE cells form a polygonal tessellation with a principally hexagonal “honeycomb” formation. RPE degeneration was assessed as a disruption of this uniformity of this polygonal sheet. Thus, RPE health was assessed as the presence or absence of morphological disruption in RPE flat mounts by two independent raters who were masked to the group assignments. […] Inter-rater reliability was measured by agreement on assignments, Pearson coefficient of determination, and Fleiss κ. […]\nCellular Morphometry: Quantifying cellular morphometry for hexagonally packed cells was performed in semi-automated fashion by three masked graders by adapting our previous analysis of corneal endothelial cell density^19. […]"}}, "data": [{"compound": "O=c1[nH]c(=O)c2[nH]c([O-])nc2[nH]1.[Na+]", "note": "[MSU, monosodium urate]", "values": [{"measurement": "IL-18 secretion", "setting": "IL-18", "value": "unaffected"}]}, {"compound": "NCC(=O)O", "note": "[glycine]", "values": [{"measurement": "effect on Alu RNA-induced RPE degeneration", "setting": "RPE [1]", "value": "neither necrostatin-1, an inhibitor of primary necrosis^39, nor glycine, an inhibitor of pyroptosis^40, blocks"}]}, {"compound": "CN1C(=O)C(Cc2c[nH]c3ccccc23)NC1=S", "note": "(stereo not shown) [necrostatin-1]", "values": [{"measurement": "effect on Alu RNA-induced RPE degeneration", "setting": "RPE [1]", "value": "neither necrostatin-1, an inhibitor of primary necrosis^39, nor glycine, an inhibitor of pyroptosis^40, blocks"}]}, {"compound": "cGAS shRNA: shRNA against cGAS, Sigma-Aldrich TRCN0000150010, SEQ ID NO: 15 (guide CCGGCCTGCTGTAACACTTCTTATTCTCGAGAATAAGAAGTGTTACAGCAGGTTTTTTG; listed as Homo sapiens)", "values": [{"measurement": "effect on DICER1 AS-induced IFNB mRNA", "setting": "IFNB mRNA", "value": "markedly depressed"}, {"measurement": "effect on Alu RNA-induced phosphorylation of STAT2", "setting": "STAT2", "value": "suppressed"}, {"measurement": "effect on Alu RNA-induced activation of caspase-1 (p20 subunit)", "setting": "caspase-1", "value": "suppressed"}, {"measurement": "effect on Alu RNA-induced activation of caspase-4 (p30 subunit)", "setting": "caspase-4", "value": "suppressed"}]}, {"compound": "poly(I:C)", "values": [{"measurement": "enrichment of mtDNA in cGAS immunoprecipitate", "setting": "cGAS", "value": "not"}]}, {"compound": "recIL-18: recombinant mature IL-18 (MBL Cat #B002-5)", "values": [{"measurement": "annexin-V / PI staining of RPE flat mounts", "setting": "RPE [2]", "value": "numerous annexin-V^+ PI^− cells"}, {"measurement": "resistance to Alu RNA-induced RPE degeneration", "setting": "RPE [3]", "value": "overcome"}]}]}
